Test results as given in patent US9796990B2 (priority 2011, dated 2017).
Converted amounts (≈) assume the structure as drawn. Like-named read-outs stand apart in the source and are kept apart here.

Key:
[1] = tested on: Bluegill (Lepomis macrochirus); details: in vivo; cited from earlier work
Ceriodaphnia dubia = assay: whole plant or invertebrate; details: read-out: EC 50, effective concentration for 50% survival

Row | SMILES | toxicity compared with the parent compound chlorpyriphos [1] | EC50 (Ceriodaphnia dubia; 24 h) | EC50 (Ceriodaphnia dubia; 48 h)
1 | CCOP(O)(=S)OCC [diethyl thiophosphoric acid] | considerably less toxic than the parent compound |  | 
2 | CCOP(=S)(OCC)Oc1cc(C)nc(C(C)C)n1 [Untreated diazinon, diazinon] |  | 0.389 ng/mL (≈ 1.28 nM) | 0.195 ng/mL (≈ 0.641 nM)
